Data taken from ChEMBL document CHEMBL5712922, “Synergistic effects of type I PRMT and PARP inhibitors against non-small cell lung cancer cells” (Clin Epigenetics, 2021).

Each compound was assayed on A549 (assay: Antiproliferative against human A549 cells assessed as viable cells pretreated with MS023 for 24 hrs followed by compound addition at 10 uM measured after for 24 hrs relative to control). Conditions: A549, 24 h, read-out: Activity.
`CCCCCCCc1ccc(CCc2cccc(O)c2C(=O)O)cc1` was tested, and the viability at 10 µM was 54.2%.
`O=C(O)c1ccc(O)c2ncccc12` showed a viability at 10 µM of 54.2%.
For `O=C(c1cncc(Br)c1)N1CCC(N2CCCC2)CC1`, the viability at 10 µM was 54.2%.
Compound `N#CC[C@@H](C1CCCC1)n1cc(-c2ncnc3[nH]ccc23)cn1` has a viability at 10 µM of 54.2%.
Work on `O=C(c1ccc(Cl)cc1Cl)n1nnc2ccccc21` yielded a viability at 10 µM of 54.2%.
In the case of `CN(C)CCCNC(=O)c1ccc(-c2cc(O)c3ncccc3c2)cc1`, the viability at 10 µM is reported as 54.2%.
For `CN(C)c1ccc(C(=O)NCCCCCCC(=O)NO)cc1`, the viability at 10 µM was 54.2%.
In the case of `Cc1cc(Cl)ccc1OCCCC(=O)NO`, the viability at 10 µM is reported as 54.2%.
`O=C(O)[C@H](Cc1c[nH]c2ccccc12)N1C(=O)c2ccccc2C1=O` was tested, and the viability at 10 µM was 54.2%.
Work on `Cc1cc(Nc2nc(N[C@@H](C)c3ccc(F)cc3)c(C#N)cc2F)n[nH]1` yielded a viability at 10 µM of 54.2%.
With `COc1cc2c(NC3CCN(CC4CCCCC4)CC3)nc(N3CCCN(C(C)C)CC3)nc2cc1OCCCN1CCCCC1` the viability at 10 µM was 54.2%.
`O=C1NC(=O)/C(=C/c2cccc(C(F)(F)F)c2)S1` showed a viability at 10 µM of 54.2%.
`Cc1sc2c(c1C)C(c1ccc(Cl)cc1)=N[C@@H](CC(=O)OC(C)(C)C)c1nnc(C)n1-2` gave a viability at 10 µM of 54.2%.
In the case of `Clc1ccc(N/N=C(\c2ccccc2)c2ccccn2)nc1`, the viability at 10 µM is reported as 54.2%.
Compound `Cc1cnc(Nc2ccc(N3CCN(C)CC3)cc2)nc1Nc1cccc(S(=O)(=O)NC(C)(C)C)c1` has a viability at 10 µM of 54.2%.
Work on `COc1cc2c(Nc3ccc(NC(=O)c4ccccc4)cc3)ncnc2cc1OCCCN1CCOCC1` yielded a viability at 10 µM of 54.2%.
For `N[C@@H]1CCCN(c2c(/C=C3\SC(=O)NC3=O)cccc2-c2ccccc2)C1`, the viability at 10 µM was 54.2%.
Work on `CN1CCN(c2cccc(Nc3nc4c(-c5ccc(S(C)(=O)=O)cc5)cccn4n3)c2)CC1` yielded a viability at 10 µM of 54.2%.
`CC(C)N(CCCNC(=O)Nc1ccc(C(C)(C)C)cc1)C[C@H]1O[C@@H](n2ccc3c(N)ncnc32)[C@H](O)[C@@H]1O` was tested, and the viability at 10 µM was 54.2%.
With `COc1ccc(Cn2ccc3ccc(C(=O)NO)cc32)cc1` the viability at 10 µM was 54.2%.
`CC(=O)N1c2ccc(-c3ccc(C(=O)O)cc3)cc2[C@H](Nc2ccc(Cl)cc2)C[C@@H]1C` gave a viability at 10 µM of 54.2%.
With `COc1ccccc1S(=O)(=O)Nc1ccc2c(c1)CN(C)C(=O)N2` the viability at 10 µM was 54.2%.
Work on `Cc1cc(Nc2ccc(NC(=O)c3ccc(Nc4ccnc5ccccc45)cc3)cc2)nc(N)n1` yielded a viability at 10 µM of 54.2%.
For `COc1ccc(C(=O)C2CCN(CC(=O)N(Cc3nc4c(c(=O)[nH]3)COCC4)CC3CC3)CC2)cc1`, the viability at 10 µM was 54.2%.
`O=C(c1ccc(C(=O)N2CCC(N3CCCC3)CC2)c(Nc2ccccc2)c1)N1CCC(N2CCCC2)CC1` was tested, and the viability at 10 µM was 54.2%.
With `Cc1cc(/N=N/c2ccc(S(=O)(=O)Nc3ccccn3)cc2)c(N)cc1O` the viability at 10 µM was 54.2%.
For `CC(C)N(CCCNC(=O)Nc1ccc(C(C)(C)C)cc1)C[C@H]1O[C@@H](n2cc(Br)c3c(N)ncnc32)[C@H](O)[C@@H]1O`, the viability at 10 µM was 54.2%.
Work on `C[C@H](NC(=O)CCc1nc2ccccc2c(=O)[nH]1)c1ccccc1` yielded a viability at 10 µM of 54.2%.
Work on `C/C(=N\NC(=O)c1cccc(S(=O)(=O)N2CCOCC2)c1)c1cc(Cl)ccc1O` yielded a viability at 10 µM of 54.2%.
In the case of `COc1cc2c(cc1OCCCN1CCCC1)N=C(N)C21CCC1`, the viability at 10 µM is reported as 54.2%.
With `O=C(NCC1(c2nc(-c3ccccc3)cs2)CCOCC1)c1cccc(-c2noc(C(F)(F)F)n2)c1` the viability at 10 µM was 54.2%.
In the case of `CCOC(=O)Nc1cc(-c2ccc(C)c(NS(C)(=O)=O)c2)nn2c(C)nnc12`, the viability at 10 µM is reported as 54.2%.
`O=C(O)CNC(=O)c1c(O)c2ccccc2n(Cc2ccccc2)c1=O` was tested, and the viability at 10 µM was 54.2%.
Work on `O=C(O)CCNc1cc(N2CCc3ccccc3CC2)nc(-c2ccccn2)n1` yielded a viability at 10 µM of 54.2%.
Work on `COc1cc2nc(N3CCCC3)nc(NCCCCCN3CCCC3)c2cc1OC` yielded a viability at 10 µM of 54.2%.
With `CCC(CC)n1ccc2c(C(=O)NCc3c(C)cc(C)[nH]c3=O)cc(C#N)cc21` the viability at 10 µM was 54.2%.
With `Cn1c(/C=C/C(=O)NO)ccc1/C=C/C(=O)c1cccc(F)c1` the viability at 10 µM was 54.2%.
`CCCc1cc2c(N3CCN(C4=NCC(C)(C)S4)CC3)ncnc2s1` was tested, and the viability at 10 µM was 54.2%.
`COc1cc(C)[nH]c(=O)c1CNC(=O)c1c(C)n([C@H](C)C2CCOCC2)c2ccccc12` gave a viability at 10 µM of 54.2%.
Work on `CCS(=O)(=O)N1CCC([C@@H](C)n2c(C)c(C(=O)NCc3c(OC)cc(C)[nH]c3=O)c3ccccc32)CC1` yielded a viability at 10 µM of 54.2%.
For `COc1ccc(CCc2nc3cc(-c4c(C)noc4C)ccc3n2C[C@H](C)N2CCOCC2)cc1Cl`, the viability at 10 µM was 54.2%.
In the case of `CCN(c1cc(C#CCN2CCOCC2)cc(C(=O)NCc2c(C)cc(C)[nH]c2=O)c1C)[C@H]1CC[C@H](N(C)CCOC)CC1`, the viability at 10 µM is reported as 54.2%.
In the case of `CC(C)c1cc2c(N3CCN(C4=NCC(C)(C)S4)CC3)ncnc2s1`, the viability at 10 µM is reported as 54.2%.
In the case of `CC1=NN(c2ccc(C(=O)O)cc2)C(=O)/C1=C/c1ccc(-c2cc(C)c(C)cc2[N+](=O)[O-])o1`, the viability at 10 µM is reported as 54.2%.
`CCCOc1ccn2c(C(C)=O)cc(-c3ccccc3S(C)(=O)=O)c2c1` showed a viability at 10 µM of 54.2%.
With `O=C(/C=C/N1C[C@H]2C[C@@H]1CN2c1ccccn1)c1ccccc1O` the viability at 10 µM was 54.2%.
For `CCn1cc(-c2cccc(C(F)(F)F)c2)c2sc(C(=N)NC3CCS(=O)(=O)CC3)cc2c1=O`, the viability at 10 µM was 54.2%.
`CN1CCc2c(c3ccccc3n2Cc2ccc(C(=O)NO)cc2)C1` gave a viability at 10 µM of 54.2%.
Work on `COc1cc(-c2cn(C)c(=O)c3cnccc23)cc(OC)c1CN(C)C` yielded a viability at 10 µM of 54.2%.
`CCC(CC)(NC(=O)C(C)C)C(=O)N[C@@H](CCCNC(=N)N)C(=O)NC1(C(=O)NC(c2ccc(F)cc2)c2ccc(F)cc2)CCCC1` was tested, and the viability at 10 µM was 54.2%.
`Cc1cc(C)c(CNC(=O)c2cc(-c3ccc(N4CCN(C)CC4)nc3)cc3c2c(C)cn3C(C)C)c(=O)[nH]1` was tested, and the viability at 10 µM was 54.2%.
`COC(=O)c1ccc2c(c1)nc(NC(=O)c1ccccc1)n2CCCc1ccccc1` was tested, and the viability at 10 µM was 54.2%.
With `N#Cc1ccc(-c2csc(NN=C3CCCC3)n2)cc1` the viability at 10 µM was 54.2%.
In the case of `O=C(NC[C@H](O)CN1CCc2ccccc2C1)c1cc(NC2COC2)ncn1`, the viability at 10 µM is reported as 54.2%.
With `O=C(NCC(=O)N1CCCC1)Nc1ccc2cnccc2c1` the viability at 10 µM was 54.2%.
With `Nc1cc(F)ccc1NC(=O)/C=C/c1cnn(C/C=C/c2ccccc2)c1` the viability at 10 µM was 54.2%.
`O=C(COc1cccc2c(=O)[nH]ccc12)c1ccccc1` gave a viability at 10 µM of 54.2%.
`Cc1cc(N2C[C@@H](C)N[C@@H](C)C2)ncc1-c1ccc(-c2nc3c(ccn3C)c(=O)[nH]2)cc1` was tested, and the viability at 10 µM was 54.2%.
`NC(=O)C1CCCc2c1[nH]c1ccc(Cl)cc21` (stereo unspecified) gave a viability at 10 µM of 54.2%.
Work on `c1ccc([C@@H]2C[C@H]2NC2CCNCC2)cc1` yielded a viability at 10 µM of 54.2%.
`N[C@H]1C[C@@H]1c1ccc(-c2cccc(O)c2)cc1` was tested, and the viability at 10 µM was 54.2%.
In the case of `O=C(Nc1ccc(-c2ccnc(Nc3ccc(N4CCOCC4)cc3)n2)cc1)[C@@H]1CCCN1`, the viability at 10 µM is reported as 54.2%.
`Cc1sc2c(c1C)C(c1ccc(Cl)cc1)=N[C@@H](CC(N)=O)c1nnc(C)n1-2` was tested, and the viability at 10 µM was 54.2%.
`O=C(NC[C@H](O)CN1CCc2ccccc2C1)c1ccnc(NC2CCC2)c1` gave a viability at 10 µM of 54.2%.
`N[C@H]1CC[C@H](N[C@@H]2C[C@H]2c2ccccc2)CC1` showed a viability at 10 µM of 54.2%.
With `Fc1cc(-c2cccc3ncc(-c4cnn(C5CCNCC5)c4)nc23)cc(F)c1CN1CCOCC1` the viability at 10 µM was 54.2%.
`O=C(Nc1ccccc1-c1cn2c(CN3CCNCC3)csc2n1)c1cnc2ccccc2n1` gave a viability at 10 µM of 54.2%.
Compound `COc1cc2ncnc(Nc3ccc(O)c(Br)c3)c2cc1OC` has a viability at 10 µM of 54.2%.
Compound `CCCCCCCCCC(=O)N[C@@H](Cc1c[nH]c2ccccc12)C(=O)N[C@H](CC(N)=O)C(=O)N[C@@H](CC(=O)O)C(=O)N[C@@H]1C(=O)NCC(=O)N[C@@H](CCCN)C(=O)N[C@@H](CC(=O)O)C(=O)N[C@H](C)C(=O)N[C@@H](CC(=O)O)C(=O)NCC(=O)N[C@H](CO)C(=O)N[C@@H]([C@H](C)CC(=O)O)C(=O)N[C@@H](CC(=O)c2ccccc2N)C(=O)O[C@@H]1C` has a viability at 10 µM of 54.2%.
`O=C([C@@H](Cc1cccc(C(F)(F)F)c1)NS(=O)(=O)c1cc(F)c2c(c1)CCNC2)N1CCCC1` showed a viability at 10 µM of 54.2%.
Work on `CCN1CCN(C(=O)Cc2ccc(Nc3ncc(F)c(Nc4ccc(C(=O)Nc5ccccc5Cl)cc4)n3)cc2)CC1` yielded a viability at 10 µM of 54.2%.
Compound `CN(CC[C@H](N)CC(=O)N[C@H]1C=C[C@H](n2ccc(N)nc2=O)O[C@@H]1C(=O)O)C(=N)N` has a viability at 10 µM of 54.2%.
In the case of `CC(C)N(CCC(=O)c1ccc2ccccc2c1)Cc1ccccc1`, the viability at 10 µM is reported as 54.2%.
`N#C/C(=C\c1ccc(O)c(O)c1)C(=O)NCc1ccccc1` was tested, and the viability at 10 µM was 54.2%.
For `COc1cc2nc(N3CCCN(C)CC3)nc(NC3CCN(Cc4ccccc4)CC3)c2cc1OC`, the viability at 10 µM was 54.2%.
`COc1cc2c(cc1NS(=O)(=O)c1ccc(Br)cc1C)n(C)c(=O)n2C` showed a viability at 10 µM of 54.2%.
For `Nc1nccc2c1ncn2[C@@H]1C=C(CO)[C@@H](O)[C@H]1O`, the viability at 10 µM was 54.2%.
`O=C(O)c1ccc(CN2CCC(CN[C@@H]3C[C@H]3c3ccccc3)CC2)cc1` gave a viability at 10 µM of 54.2%.
With `NC1=NC(=O)/C(=C\c2ccc(O)cc2)S1` the viability at 10 µM was 54.2%.
`CNNCc1ccc(C(=O)NC(C)C)cc1` showed a viability at 10 µM of 54.2%.
In the case of `CCOC(=O)CCNc1cc(N2CCc3ccccc3CC2)nc(-c2ccccn2)n1`, the viability at 10 µM is reported as 54.2%.
Compound `CCCOc1ccc(CCc2nc3cc(-c4c(C)noc4C)ccc3n2CCN2CCOCC2)cc1` has a viability at 10 µM of 54.2%.
In the case of `CN1CCCN(C(=O)c2cccc(-c3ccc(/C=C4/C(=O)Nc5ccc(Cl)cc54)o3)c2)CC1`, the viability at 10 µM is reported as 54.2%.
With `CCn1c2ccccc2c2cc(CNCc3ccccc3OC)ccc21` the viability at 10 µM was 54.2%.
`CN(C)Cc1ccc(-c2nc3cccc4c3n2CCNC4=O)cc1` gave a viability at 10 µM of 54.2%.
`O=C(CCCCCN1C(=O)c2cccc3cccc(c23)C1=O)NO` was tested, and the viability at 10 µM was 54.2%.
